Measurements published in US7696236B2, “Method of providing pirfenidone therapy to a patient” (InterMune, Inc., priority 2006, dated 2010).

Columns and labels:
[1] = oral tablet and capsule forms, clinical trials; effects appear to be dose related; cited from earlier work
[2] = tested on: fibrogenic cytokines such as TGF-β1, bFGF, PDGF, and EGF; conditions: Zhang S et al. 1998; cited from earlier work
[3] = adverse events associated with pirfenidone therapy in patients; assay type: in vivo, patient; conditions: dosing escalation scheme described herein (up to 2,403 mg per day, full dosage about Day 15)
Procedure: As an investigational drug, pirfenidone is provided in tablet and capsule forms principally for oral administration. Various formulations have been tested and adopted in clinical trials and other research and experiments. […] Many of these effects can interfere with everyday activities and quality of life. These effects appear to be dose related. The adverse reactions associated with pirfenidone therapy are exacerbated when pirfenidone is administered at these higher doses.
The present invention overcomes the unmet clinical need by providing an improved, optimized dose escalation scheme for the administration of pirfenidone. The dose escalation scheme of the present invention provides pirfenidone in an amount such that the full maximum dosage is not reached for at least one week. In a preferred embodiment, the full maximum dosage of pirfenidone is not reached until about Day 15 of treatment. The method of the present invention allows for a maximum dosage of 2,403 mg of pirfenidone per day to be administered to a patient and also reduces the incidence of adverse events associated with the administration of pirfenidone by more accurately matching dose escalation with tolerance development in the patient. […]

TNF-α = conditions: from macrophages and other cells; Cain et al. 1998; cited from earlier work

Cc1ccc(=O)n(-c2ccccc2)c1 [pirfenidone, 5-methyl-1-phenyl-2-(1H)-pyridone]
most common adverse reactions or events associated with pirfenidone therapy [1]: gastrointestinal upset, nausea, fatigue, somnolence, dizziness, headache, and photosensitivity rash
excessive biosynthesis or release of various fibrogenic cytokines [2]: inhibits
adverse events, such as somnolence and photosensitivity reaction, as the dosage escalates [3]: decrease
synthesis and release of excessive amounts of TNF-α (TNF-α): blocks
